Measured values as given in the supplement of paper PMC11562712.

Test: first-order primary biodegradation rate constant k (sorption-corrected, fDis-corrected) (d-1); higher = faster biodegradation
Protocol: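 Modified OECD 309 water-sediment test. River water plus sieved sediment (50 g wet solid/L) from European river segments (DE, CH, ES, EL) was spiked with a mixture of 129 compounds at 1 ug/L each and incubated in the dark at river temperature for 10 days. The water phase was analysed by UHPLC-Orbitrap-MS. The first-order primary biodegradation rate constant k (d-1) is k_observed, corrected for dissipation in sterile sorption controls and divided by the dissolved fraction fDis; it was fitted over 3 replicate incubations. Invalid fits (p > 0.05, n < 5, not available, concentration increase) are excluded.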

[1] = river segment: Germany (DE) H_Contam, incubation temperature 24 °C
[2] = river segment: Germany (DE) T_Contam, incubation temperature 24 °C
[3] = river segment: Germany (DE) T_Pris, incubation temperature 24 °C
[4] = river segment: Greece (EL) A_Contam, incubation temperature 19 °C
[5] = river segment: Greece (EL) G_Pris, incubation temperature 19 °C
[6] = river segment: Greece (EL) L_Contam, incubation temperature 19 °C
[7] = river segment: Spain (ES) B_Contam, incubation temperature 24 °C
[8] = river segment: Spain (ES) C_Contam, incubation temperature 24 °C
[9] = river segment: Spain (ES) L_Contam, incubation temperature 24 °C
[10] = river segment: Switzerland (CH) R_Contam, incubation temperature 17 °C
[11] = river segment: Switzerland (CH) U_Contam, incubation temperature 17 °C
[12] = river segment: Switzerland (CH) U_Pris, incubation temperature 17 °C
[13] = river segment: Greece (EL) G_Contam, incubation temperature 19 °C
[14] = river segment: Spain (ES) F_Pris_Salt, incubation temperature 24 °C
[15] = river segment: Switzerland (CH) C_Contam, incubation temperature 17 °C

c1ccc2[nH]nnc2c1 [Benzotriazole]
first-order primary biodegradation rate constant k [1]: 0.0409
first-order primary biodegradation rate constant k [2]: 0.0507
first-order primary biodegradation rate constant k [3]: 0.00553
first-order primary biodegradation rate constant k [4]: 0.316
first-order primary biodegradation rate constant k [5]: 0.0923
first-order primary biodegradation rate constant k [6]: 2.87
first-order primary biodegradation rate constant k [7]: 0.0121
first-order primary biodegradation rate constant k [8]: 0.00219
first-order primary biodegradation rate constant k [9]: 0.208
first-order primary biodegradation rate constant k [10]: 0.00612
first-order primary biodegradation rate constant k [11]: 0.0122
first-order primary biodegradation rate constant k [12]: 0.0264

CC(C)(Oc1ccc(CCNC(=O)c2ccc(Cl)cc2)cc1)C(=O)O [Bezafibrate]
first-order primary biodegradation rate constant k [1]: 0.295
first-order primary biodegradation rate constant k [2]: 0.469
first-order primary biodegradation rate constant k [3]: 0.123
first-order primary biodegradation rate constant k [4]: 0.408
first-order primary biodegradation rate constant k [13]: 0.184
first-order primary biodegradation rate constant k [5]: 0.438
first-order primary biodegradation rate constant k [6]: 0.566
first-order primary biodegradation rate constant k [7]: 1.03
first-order primary biodegradation rate constant k [8]: 0.169
first-order primary biodegradation rate constant k [14]: 0.0229
first-order primary biodegradation rate constant k [9]: 0.263
first-order primary biodegradation rate constant k [15]: 0.382
first-order primary biodegradation rate constant k [10]: 0.411
first-order primary biodegradation rate constant k [12]: 2.17

CC(C)NCC(O)COc1ccc(COCCOC(C)C)cc1 (stereo unspecified) [Bisoprolol]
first-order primary biodegradation rate constant k [1]: 0.341
first-order primary biodegradation rate constant k [2]: 0.352
first-order primary biodegradation rate constant k [3]: 0.336
first-order primary biodegradation rate constant k [13]: 0.37
first-order primary biodegradation rate constant k [5]: 0.293
first-order primary biodegradation rate constant k [6]: 1.27
first-order primary biodegradation rate constant k [7]: 0.569
first-order primary biodegradation rate constant k [8]: 0.414
first-order primary biodegradation rate constant k [14]: 0.144
first-order primary biodegradation rate constant k [9]: 0.28
first-order primary biodegradation rate constant k [15]: 0.326
first-order primary biodegradation rate constant k [10]: 0.309
first-order primary biodegradation rate constant k [11]: 0.473
first-order primary biodegradation rate constant k [12]: 0.772

N#Cc1cc(Br)c(O)c(Br)c1 [Bromoxynil]
first-order primary biodegradation rate constant k [2]: 0.133
first-order primary biodegradation rate constant k [6]: 0.0249
first-order primary biodegradation rate constant k [9]: 0.0939
first-order primary biodegradation rate constant k [12]: 0.0852

Cn1c(=O)c2c(ncn2C)n(C)c1=O [Caffeine]
first-order primary biodegradation rate constant k [1]: 0.262
first-order primary biodegradation rate constant k [2]: 0.415
first-order primary biodegradation rate constant k [3]: 0.0734
first-order primary biodegradation rate constant k [4]: 0.894
first-order primary biodegradation rate constant k [13]: 0.085
first-order primary biodegradation rate constant k [5]: 0.0394
first-order primary biodegradation rate constant k [6]: 0.276
first-order primary biodegradation rate constant k [7]: 1.52
first-order primary biodegradation rate constant k [8]: 0.276
first-order primary biodegradation rate constant k [14]: 0.215
first-order primary biodegradation rate constant k [9]: 0.895
first-order primary biodegradation rate constant k [15]: 0.172
first-order primary biodegradation rate constant k [10]: 0.144
first-order primary biodegradation rate constant k [11]: 0.368
first-order primary biodegradation rate constant k [12]: 0.69

CCOc1nc2cccc(C(=O)O)c2n1Cc1ccc(-c2ccccc2-c2nnn[nH]2)cc1 [Candesartan]
first-order primary biodegradation rate constant k [4]: 0.00917
first-order primary biodegradation rate constant k [13]: 0.398
first-order primary biodegradation rate constant k [12]: 0.00966

NC(=O)N1c2ccccc2C=Cc2ccccc21 [Carbamazepine]
first-order primary biodegradation rate constant k [2]: 0.0377
first-order primary biodegradation rate constant k [4]: 0.00808
first-order primary biodegradation rate constant k [6]: 0.00883
first-order primary biodegradation rate constant k [8]: 0.00861
first-order primary biodegradation rate constant k [9]: 0.711

COC(=O)Nc1nc2ccccc2[nH]1 [Carbendazim]
first-order primary biodegradation rate constant k [1]: 0.0157
first-order primary biodegradation rate constant k [2]: 0.155
first-order primary biodegradation rate constant k [3]: 0.00648
first-order primary biodegradation rate constant k [4]: 0.1
first-order primary biodegradation rate constant k [5]: 0.0594
first-order primary biodegradation rate constant k [7]: 0.0208
first-order primary biodegradation rate constant k [8]: 0.00806
first-order primary biodegradation rate constant k [14]: 0.03
first-order primary biodegradation rate constant k [9]: 0.0322
first-order primary biodegradation rate constant k [11]: 0.0106
first-order primary biodegradation rate constant k [12]: 0.0192

NS(=O)(=O)c1cc2c(cc1Cl)N=CNS2(=O)=O [Chlorothiazide]
first-order primary biodegradation rate constant k [2]: 0.0266
first-order primary biodegradation rate constant k [14]: 0.166

NS(=O)(=O)c1cc(C2(O)NC(=O)c3ccccc32)ccc1Cl (stereo unspecified) [Chlorthalidone]
first-order primary biodegradation rate constant k [1]: 0.0136
first-order primary biodegradation rate constant k [2]: 0.0182

Cc1ccc(NC(=O)N(C)C)cc1Cl [Chlortoluron]
first-order primary biodegradation rate constant k [1]: 0.0585
first-order primary biodegradation rate constant k [2]: 0.156
first-order primary biodegradation rate constant k [3]: 0.00289
first-order primary biodegradation rate constant k [4]: 0.306
first-order primary biodegradation rate constant k [13]: 0.0396
first-order primary biodegradation rate constant k [5]: 0.423
first-order primary biodegradation rate constant k [6]: 0.139
first-order primary biodegradation rate constant k [7]: 0.0189
first-order primary biodegradation rate constant k [9]: 0.114
first-order primary biodegradation rate constant k [11]: 0.0378
first-order primary biodegradation rate constant k [12]: 0.0569

CC1(C)C[C@@H]1C(=O)N/C(=C\CCCCSC[C@H](N)C(=O)O)C(=O)O [Cilastatin]
first-order primary biodegradation rate constant k [1]: 5.75
first-order primary biodegradation rate constant k [2]: 5.89
first-order primary biodegradation rate constant k [3]: 4.29
first-order primary biodegradation rate constant k [4]: 7.64
first-order primary biodegradation rate constant k [13]: 5.93
first-order primary biodegradation rate constant k [5]: 22
first-order primary biodegradation rate constant k [6]: 5.07
first-order primary biodegradation rate constant k [7]: 10.1
first-order primary biodegradation rate constant k [8]: 7.57
first-order primary biodegradation rate constant k [14]: 8.78
first-order primary biodegradation rate constant k [9]: 12.5
first-order primary biodegradation rate constant k [15]: 7.85
first-order primary biodegradation rate constant k [10]: 7.32
first-order primary biodegradation rate constant k [11]: 7.54
first-order primary biodegradation rate constant k [12]: 10.7

CN(C)CCCC1(c2ccc(F)cc2)OCc2cc(C#N)ccc21 (stereo unspecified) [Citalopram]
first-order primary biodegradation rate constant k [1]: 0.00417
first-order primary biodegradation rate constant k [2]: 4.92
first-order primary biodegradation rate constant k [13]: 8.04
first-order primary biodegradation rate constant k [6]: 19.9
first-order primary biodegradation rate constant k [7]: 0.279
first-order primary biodegradation rate constant k [8]: 0.06
first-order primary biodegradation rate constant k [15]: 0.0178
first-order primary biodegradation rate constant k [10]: 0.288
first-order primary biodegradation rate constant k [11]: 0.0832
first-order primary biodegradation rate constant k [12]: 0.185

CC(C)(C)C(=O)C(Oc1ccc(Cl)cc1)n1ccnc1 (stereo unspecified) [Climbazole]
first-order primary biodegradation rate constant k [2]: 0.282
first-order primary biodegradation rate constant k [13]: 9.42
first-order primary biodegradation rate constant k [7]: 0.421
first-order primary biodegradation rate constant k [8]: 0.0396
first-order primary biodegradation rate constant k [14]: 0.0487
first-order primary biodegradation rate constant k [15]: 0.0523
first-order primary biodegradation rate constant k [11]: 1.6
first-order primary biodegradation rate constant k [12]: 0.68
